One assay relates to VCaP cells. The assay is described as follows: VCaP growth inhibition assay. It is filed as cell-based. As to conditions: 30 pM R1881, 9 days, CTG. A digest of the protocol: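 VCaP cells in phenol red-free DMEM/5% CSS, pre-incubated 72 h, then stimulated with R1881 (final 30 pM) and treated with 1:5 serial dilutions (final 100 nM to 10 fM) for 9 days at 37 °C. Viability by CellTiter-Glo luminescence; IC50 from 4-parameter logistic fit of RLU vs concentration.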

A further assay concerns AR / CBP ternary complex. The assay can be described thus: Ternary complex formation assay (sandwich ELISA, AR capture / CBP detection) in VCaP cell lysates. It is filed as cell-based. As to conditions: 1.5 hours treatment, sandwich ELISA (AR capture, CBP or p300 detection). Put shortly:
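VCaP cells (50K/well, 5% charcoal-stripped FBS, ≥3 days) treated with bifunctional compound for 1.5 h, then lysed 30 min at 4 °C. AR captured on anti-AR (AR 441) plates; bound CBP or p300 detected by rabbit mAb plus HRP secondary. QuantaRed chemifluorescence read at ex 570/em 585, immediately and at 5 and 15 min.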
On the technique in general: ELISA stands for enzyme-linked immunosorbent assay.

What is called IC50 is the point on the concentration scale where inhibition reaches its midpoint. A high value points to weaker potency in that assay. In general, EC50 refers to the midpoint of the concentration-response curve. Low readings indicate an effect from little substance, high ones a need for much substance.

In the case of `CN1C(=O)CCc2cc(-c3cccc4cc(-c5ccc(CCC6CCN(c7ncc(C(=O)NC8C(C)(C)C(Oc9ccc(C#N)c(Cl)c9)C8(C)C)cn7)CC6)nc5)ncc34)ccc21` (stereo not shown) [Compound 238, N-[3-(3-chloro-4-cyano-phenoxy)-2,2,4,4-tetramethyl-cyclobutyl]-2-[4-[2-[5-[8-(1-methyl-2-oxo-3,4-dihydroquinolin-6-yl)-3-isoquinolyl]-2-pyridyl]ethyl]-1-piperidyl]pyrimidine-5-carboxamide], the IC50 in the assay on VCaP cells is > 100 nM. This compound also gave an EC50 in the assay on AR / CBP ternary complex of 10 to 100 nM.
The matching figures for `Cn1c(=O)n(C)c2cc(N3CCCc4cc(-c5ccc(CCC6CCN(c7ncc(C(=O)NC8C(C)(C)C(Oc9ccc(C#N)c(Cl)c9)C8(C)C)cn7)CC6)nc5)c(C(F)F)cc43)ccc21` (stereo not shown) [Compound 233, N-[3-(3-chloro-4-cyano-phenoxy)-2,2,4,4-tetramethyl-cyclobutyl]-2-[4-[2-[5-[7-(difluoromethyl)-1-(1,3-dimethyl-2-oxo-benzimidazol-5-yl)-3,4-dihydro-2H-quinolin-6-yl]-2-pyridyl]ethyl]-1-piperidyl]pyrimidine-5-carboxamide]: > 100 nM and 1 to 10 nM.
In turn, `COc1cc(OC2C(C)(C)C(NC(=O)c3ccc(N4CCC[C@H](N5CCC(n6nc(N7CCCc8cc(-c9cnn(C)c9)c(C(F)F)cc87)c7c6CCN(C(C)=O)C7)CC5)C4)cc3)C2(C)C)ccc1C#N` (stereo partly drawn) [Compound 399, 4-[(3S)-3-[4-[5-acetyl-3-[7-(difluoromethyl)-6-(1-methylpyrazol-4-yl)-3,4-dihydro-2H-quinolin-1-yl]-6,7-dihydro-4H-pyrazolo[4,3-c]pyridin-1-yl]-1-piperidyl]-1-piperidyl]-N-[3-(4-cyano-3-methoxy-phenoxy)-2,2,4,4-tetramethyl-cyclobutyl]benzamide] displayed an IC50 with VCaP cells of 1 to 100 nM. For the same compound, the EC50 in the assay on AR / CBP ternary complex is 1 to 10 nM.
As to `CC(=O)N1CCc2c(c(Nc3ccc(-c4cnn(C)c4)cc3F)nn2C2CCN(C(=O)COC3CCN(c4ncc(C(=O)NC5C(C)(C)C(Oc6ccc(C#N)c(Cl)c6)C5(C)C)cn4)CC3)CC2)C1` (stereo not shown) [Compound 177, 2-[4-[2-[4-[5-acetyl-3-[2-fluoro-4-(1-methylpyrazol-4-yl)anilino]-6,7-dihydro-4H-pyrazolo[4,3-c]pyridin-1-yl]-1-piperidyl]-2-oxo-ethoxy]-1-piperidyl]-N-[3-(3-chloro-4-cyano-phenoxy)-2,2,4,4-tetramethyl-cyclobutyl]pyrimidine-5-carboxamide], the IC50 with VCaP cells was > 100 nM. For the same compound, the EC50 with AR / CBP ternary complex was < 1 nM.
Turning to `CC(=O)N1CCc2c(c(N3CCCc4cc(-c5cnn(C)c5)c(C(F)F)cc43)nn2C2CCN(C3CCN(c4ncc(C(=O)NC5C(C)(C)C(Oc6ccc(C#N)c(Cl)c6)C5(C)C)cn4)CC3)C2)C1` (stereo not shown) [Compound 12, 2-[4-[3-[5-acetyl-3-[7-(difluoromethyl)-6-(1-methylpyrazol-4-yl)-3,4-dihydro-2H-quinolin-1-yl]-6,7-dihydro-4H-pyrazolo[4,3-c]pyridin-1-yl]pyrrolidin-1-yl]-1-piperidyl]-N-[3-(3-chloro-4-cyano-phenoxy)-2,2,4,4-tetramethyl-cyclobutyl]pyrimidine-5-carboxamide], in the assay with VCaP cells, the IC50 lay in the range of 1 to 100 nM. The same compound gave an EC50 in the assay with AR / CBP ternary complex of 1 to 10 nM.
Consider `CC(=O)N1CCc2c(c(N3CCCc4cc(-c5cnn(C)c5)c(C(F)F)cc43)nn2C2CCN(Cc3cn(Cc4ncc(C(=O)NC5C(C)(C)C(Oc6ccc(C#N)c(Cl)c6)C5(C)C)cn4)nn3)CC2)C1` (stereo not shown) [Compound 188, 2-[[4-[[4-[5-acetyl-3-[7-(difluoromethyl)-6-(1-methylpyrazol-4-yl)-3,4-dihydro-2H-quinolin-1-yl]-6,7-dihydro-4H-pyrazolo[4,3-c]pyridin-1-yl]-1-piperidyl]methyl]triazol-1-yl]methyl]-N-[3-(3-chloro-4-cyano-phenoxy)-2,2,4,4-tetramethyl-cyclobutyl]pyrimidine-5-carboxamide], for which the IC50 in the assay on VCaP cells was ≤ 0.1 nM. For the same compound, in the assay on AR / CBP ternary complex, the EC50 was < 1 nM.
For `C[C@@H]1CC(=O)Nc2cccc(-c3ccc4c(c3)c(-c3cnn(C)c3)nn4CC3CCN(c4ncc(C(=O)NC5C(C)(C)C(Oc6ccc(C#N)c(Cl)c6)C5(C)C)cn4)CC3)c2N1` (stereo partly drawn) [Compound 58, N-[3-(3-chloro-4-cyano-phenoxy)-2,2,4,4-tetramethyl-cyclobutyl]-2-[4-[[5-[(4R)-4-methyl-2-oxo-1,3,4,5-tetrahydro-1,5-benzodiazepin-6-yl]-3-(1-methylpyrazol-4-yl)indazol-1-yl]methyl]-1-piperidyl]pyrimidine-5-carboxamide], the IC50 in the assay with VCaP cells is > 100 nM. In the assay with AR / CBP ternary complex, the EC50 is > 100 nM.
For `CC(=O)N1CCc2c(c(N3CCCc4cc(-c5cnn(C)c5)c(C(F)F)cc43)nn2C2CCC3(CCCN(c4ncc(C(=O)NC5C(C)(C)C(Oc6ccc(C#N)c(Cl)c6)C5(C)C)cn4)C3)CC2)C1` (stereo not shown) [Compound 412, 2-[9-[5-acetyl-3-[7-(difluoromethyl)-6-(1-methylpyrazol-4-yl)-3,4-dihydro-2H-quinolin-1-yl]-6,7-dihydro-4H-pyrazolo[4,3-c]pyridin-1-yl]-2-azaspiro[5.5]undecan-2-yl]-N-[3-(3-chloro-4-cyano-phenoxy)-2,2,4,4-tetramethyl-cyclobutyl]pyrimidine-5-carboxamide], the IC50 in the assay on VCaP cells was > 100 nM. The concentration for a half-maximal effect (EC50) in the assay on AR / CBP ternary complex is > 100 nM.
`COc1cc(OC2C(C)(C)C(NC(=O)c3ccc(N4CC5CC4CC5CN4CCC(n5nc(N6CCCc7cc(-c8cnn(C)c8)c(C(F)F)cc76)c6c5CCN(C(C)=O)C6)CC4)cc3)C2(C)C)ccc1C#N` (stereo not shown) [Compound 255, 4-[5-[[4-[5-acetyl-3-[7-(difluoromethyl)-6-(1-methylpyrazol-4-yl)-3,4-dihydro-2H-quinolin-1-yl]-6,7-dihydro-4H-pyrazolo[4,3-c]pyridin-1-yl]-1-piperidyl]methyl]-2-azabicyclo[2.2.1]heptan-2-yl]-N-[3-(4-cyano-3-methoxy-phenoxy)-2,2,4,4-tetramethyl-cyclobutyl]benzamide] registered an IC50 in the assay with VCaP cells of 0.1 to 1 nM. Besides, the EC50 in the assay with AR / CBP ternary complex is < 1 nM.
Consider `COc1cc(OC2C(C)(C)C(NC(=O)c3ccc(N4CC(C)C(CN5CCC(n6nc(N7CCCc8cc(C#N)c(C(F)F)cc87)c7c6CCN(C(C)=O)C7)CC5)C(C)C4)cc3)C2(C)C)ccc1C#N` (stereo not shown) [Compound 459, 4-[4-[[4-[5-acetyl-3-[6-cyano-7-(difluoromethyl)-3,4-dihydro-2H-quinolin-1-yl]-6,7-dihydro-4H-pyrazolo[4,3-c]pyridin-1-yl]-1-piperidyl]methyl]-3,5-dimethyl-1-piperidyl]-N-[3-(4-cyano-3-methoxy-phenoxy)-2,2,4,4-tetramethyl-cyclobutyl]benzamide], for which the IC50 with VCaP cells was in the range of 0.1 to 1 nM. Besides, the EC50 in the assay on AR / CBP ternary complex was < 1 nM.
For the compound `CC(=O)N1CCc2c(c(N3CCCc4cc(-c5cnn(C)c5)c(C(F)F)cc43)nn2C2CCN([C@H]3CCCN(c4ncc(C(=O)NC5C(C)(C)C(Oc6ccc(C#N)c(Cl)c6)C5(C)C)cn4)C3)CC2)C1` (stereo partly drawn) [Compound 397, 2-[(3S)-3-[4-[5-acetyl-3-[7-(difluoromethyl)-6-(1-methylpyrazol-4-yl)-3,4-dihydro-2H-quinolin-1-yl]-6,7-dihydro-4H-pyrazolo[4,3-c]pyridin-1-yl]-1-piperidyl]-1-piperidyl]-N-[3-(3-chloro-4-cyano-phenoxy)-2,2,4,4-tetramethyl-cyclobutyl]pyrimidine-5-carboxamide], the IC50 with VCaP cells was > 100 nM. In the assay with AR / CBP ternary complex, this compound yielded an EC50 of 1 to 10 nM.
The compound `COc1cc(OC2C(C)(C)C(NC(=O)c3ccc(N4CCC(C(=O)N5CCC(n6nc(-c7cccc8cc(C9CC9)ncc78)c7c6CCN(C(C)=O)C7)CC5)CC4)cc3)C2(C)C)ccc1C#N` (stereo not shown) [Compound 256, 4-[4-[4-[5-acetyl-3-(3-cyclopropyl-8-isoquinolyl)-6,7-dihydro-4H-pyrazolo[4,3-c]pyridin-1-yl]piperidine-1-carbonyl]-1-piperidyl]-N-[3-(4-cyano-3-methoxy-phenoxy)-2,2,4,4-tetramethyl-cyclobutyl]benzamide] returned a half-inhibitory concentration (IC50) in the assay on VCaP cells of 0.1 to 1 nM. The EC50 in the assay on AR / CBP ternary complex is < 1 nM.
In the case of `COc1cc(OC2C(C)(C)C(NC(=O)c3ccc(N4CCC(N5CCC(n6nc(N7CCCc8cc(-c9cnn(C)c9)c(C(F)F)cc87)c7c6CCN(C(C)=O)C7)CC5)C(F)(F)C4)cc3)C2(C)C)ccc1C#N` (stereo not shown) [Compound 302, 4-[4-[4-[5-acetyl-3-[7-(difluoromethyl)-6-(1-methylpyrazol-4-yl)-3,4-dihydro-2H-quinolin-1-yl]-6,7-dihydro-4H-pyrazolo[4,3-c]pyridin-1-yl]-1-piperidyl]-3,3-difluoro-1-piperidyl]-N-[3-(4-cyano-3-methoxy-phenoxy)-2,2,4,4-tetramethyl-cyclobutyl]benzamide], the IC50 in the assay with VCaP cells is ≤ 0.1 nM. For the same compound, the EC50 with AR / CBP ternary complex was < 1 nM.
On to `COc1cc(OC2C(C)(C)C(NC(=O)c3ccc(N4CC(N5CCC6(CCC(n7nc(N8CCCc9cc(-c%10cnn(C)c%10)c(C(F)F)cc98)c8c7CCN(C(C)=O)C8)CC6)C5)C4)cc3)C2(C)C)ccc1C#N` (stereo not shown) [Compound 401, 4-[3-[8-[5-acetyl-3-[7-(difluoromethyl)-6-(1-methylpyrazol-4-yl)-3,4-dihydro-2H-quinolin-1-yl]-6,7-dihydro-4H-pyrazolo[4,3-c]pyridin-1-yl]-2-azaspiro [4.5]decan-2-yl]azetidin-1-yl]-N-[3-(4-cyano-3-methoxy-phenoxy)-2,2,4,4-tetramethyl-cyclobutyl]benzamide], for which, in the assay with VCaP cells, the IC50 lay within 0.1 to 1 nM. For the same compound, in the assay on AR / CBP ternary complex, the EC50 is < 1 nM.

The values above are taken from patent US20250129070A1, “BIFUNCTIONAL ANDROGEN RECEPTOR COMPOUNDS” (priority 2023, published 2025).
